The test system of one data set is Myzus persicae. The data set is described as follows: Myzus persicae - test (spray application). The conditions noted are these: read-out: activity (mortality in %). In kind it is in vivo. Here is the method: Myzus persicae - test; (spray application)
(§1) To produce a suitable preparation of active compound, 1 part by weight of active compound is mixed with the stated amount of solvent and emulsifier, and the concentrate is diluted with emulsifier-containing water to the desired concentration.
Chinese cabbage (Brassica pekinesis) leaf-disks infected with all instars of the green peach aphid (Myzus persicae), are sprayed with a preparation of the active ingredient at the desired concentration.
After the specified period of time, mortality in % is determined, 100% means that all aphids have been killed; 0% means that none of the aphids have been killed, […]

Data set [1] is described as follows: logP (acidic) / lgP (HCOOH), phys. data. Format: physicochemical. As to conditions: for logP: acidic; for lgP (HCOOH): preparation examples, b176 prints logP (HCOOH).
Another data set deals with Tetranychus urticae. In words: Tetranychus urticae - test; OP-resistant (spray application). Format: in vivo. As to conditions: application rate of 100 g/ha, French bean, all stages. The procedure: Tetranychus urticae - test; OP-resistant (spray application)
as §1
French bean (Phaseolus vulgaris) which are heavily infested with all stages of the two spotted spidermite (Tetranychus urticae), are sprayed with a preparation of the active ingredient at the desired concentration.
After the specified period of time, mortality in % is determined, 100% means that all spider mites have been killed and 0% means that none of the spider mites have been killed.

The next data set has as its system Phaedon cochleariae. The data set is described as follows: Phaedon cochleariae - test (spray application). In kind it is in vivo. As to conditions: application rate of 500 g/ha, Chinese cabbage leaf-disks, mustard beetle larvae. The procedure: Phaedon cochlearlae - test (spray application)
To produce a suitable preparation of active compound, I part by weight of active compound is mixed with the stated amount of solvent and emulsifier, and the concentrate is diluted with emulsifier-containing water to the desired concentration.
Chinese cabbage (Brassica pekinesis) leaf-disks are treated by being sprayed with the preparation of the active compound of the desired concentration and are, after drying, infested with mustard beetle larvae (Phaedon cochleariae).
After the specified period of time, mortality in % is determined, 100 % means that all the beetle larvae have been killed; 0 % means that none of the beetle larvae have been killed.

[2] abbreviates: application rate of 500 g/ha, spray application, Chinese cabbage leaf-disks, all instars of the green peach aphid.
Where [3] appears, read: Table I-1, read-out: Phys. data = logP (acidic).

Where two headings read alike, the source gives them in different places. Where only a bound is given, the exact number is not on record here.

Usually mortality stands for the share of the test organisms that died. By logP is commonly meant a log measure of how a compound divides between an organic and an aqueous phase. With `S=C(NCc1ccccc1)N1CCOC1=NC1CCc2ccccc21` (centres unmarked) [1-1], the mortality at 500 g/ha in the data set with Myzus persicae (setting [2]) was at least 80%. The logP in data set [1] (setting [3]) was found to be 4.46.
On to `S=C(NCc1ccccc1)N1CCOC1=N[C@H]1CCc2ccccc21` [1-2, N-benzyl-2-[(1S)-2,3-dihydro-1H-inden-1-ylimino]-1,3-oxazolidiner3-carbothioamide], for which the mortality at 500 g/ha with Myzus persicae (setting [2]) is at least 80%. The logP in data set [1] (setting [3]) was 4.46. In addition, the “lgP (HCOOH)” value in data set [1] is 4.46. Moreover, the mortality at 100 g/ha in the data set on Tetranychus urticae was at least 80%.
On to `S=C(NCc1ccc(Cl)cc1)N1CCOC1=N[C@H]1CCc2ccccc21` [1-19], for which the mortality at 500 g/ha in the data set on Myzus persicae (setting [2]) is at least 80%. Moreover, the logP in data set [1] (setting [3]) came out at 5.02.
With `S=C(NCc1cccc(Cl)c1)N1CCOC1=N[C@H]1CCc2ccccc21` [1-20], in the data set with Myzus persicae (setting [2]), the mortality at 500 g/ha is at least 80%. The logP in data set [1] (setting [3]) stood at 4.97.
On to `S=C(NCc1ccccc1Cl)N1CCOC1=N[C@H]1CCc2ccccc21` [1-21], for which the mortality at 500 g/ha in the data set with Myzus persicae (setting [2]) is at least 80%. For the same compound, the logP in data set [1] (setting [3]) amounted to 4.97.
For `S=C(NCc1ccc2c(c1)OCO2)N1CCOC1=N[C@H]1CCc2ccccc21` [1-22], the mortality at 500 g/ha in the data set with Myzus persicae (setting [2]) and in the data set with Phaedon cochleariae was at least 80% throughout. Besides, the logP in data set [1] (setting [3]) amounted to 4.11.
For `Cc1ccc(CNC(=S)N2CCOC2=N[C@H]2CCc3ccccc32)cc1` [1-23], the mortality at 500 g/ha in the data set with Myzus persicae (setting [2]) is at least 80%. For the same compound, the logP in data set [1] (setting [3]) was found to be 4.91.
Consider `Fc1ccc(CNC(=S)N2CCOC2=N[C@H]2CCc3ccccc32)cc1` [1-24], for which, in the data set with Myzus persicae (setting [2]), the mortality at 500 g/ha is at least 80%. In data set [1] (setting [3]), the logP is 4.51.
Turning to `COc1ccc(CNC(=S)N2CCOC2=N[C@H]2CCc3ccccc32)cc1` [1-25], the mortality at 500 g/ha in the data set with Myzus persicae (setting [2]) was at least 80%. Further, the logP in data set [1] (setting [3]) is 4.28.
`COc1ccc(CNC(=S)N2CCOC2=N[C@H]2CCc3ccccc32)cc1OC` [1-26]: the mortality at 500 g/ha in the data set on Myzus persicae (setting [2]) is at least 80%. In addition, in data set [1] (setting [3]), the logP was 3.8.
Regarding `S=C(NCc1ccc(Cl)cc1Cl)N1CCOC1=N[C@H]1CCc2ccccc21` [1-27], the mortality at 500 g/ha with Myzus persicae (setting [2]) and in the data set on Phaedon cochleariae was at least 80% throughout. Moreover, in data set [1] (setting [3]), the logP was 5.65.
Regarding `CC(NC(=S)N1CCOC1=N[C@H]1CCc2ccccc21)c1ccccc1` (some centres unmarked) [1-29], the logP in data set [1] (setting [3]) was determined as 4.85.
`CC(NC(=S)N1CCOC1=N[C@H]1CCc2ccccc21)c1ccccc1Cl` (some centres unmarked) [1-32]: the mortality at 500 g/ha with Myzus persicae (setting [2]) was at least 80%. The lipophilicity (logP) in data set [1] (setting [3]) was found to be 5.31.
Consider `CC(NC(=S)N1CCOC1=N[C@H]1CCc2ccccc21)c1ccc(Cl)cc1` (some centres unmarked) [1-34], for which the mortality at 500 g/ha with Myzus persicae (setting [2]) is at least 80%. Moreover, the logP in data set [1] (setting [3]) amounted to 5.64.
For the compound `CC(NC(=S)N1CCOC1=N[C@H]1CCc2ccccc21)c1cccc(Cl)c1` (some centres unmarked) [1-35], the mortality at 500 g/ha with Myzus persicae (setting [2]) and in the data set on Phaedon cochleariae was at least 80% throughout. Also, the logP in data set [1] (setting [3]) is 5.31.
Turning to `CC(NC(=S)N1CCOC1=NC1CCc2ccccc21)c1ccc(F)cc1` (centres unmarked) [1-36], the mortality at 500 g/ha with Myzus persicae (setting [2]) is at least 80%. Moreover, the logP in data set [1] (setting [3]) stood at 4.91.
For the compound `S=C(NCCc1ccc(Cl)cc1)N1CCOC1=N[C@H]1CCc2ccccc21` [1-38], the mortality at 500 g/ha in the data set with Myzus persicae (setting [2]) is at least 80%. The logP in data set [1] (setting [3]) was 5.25.
In the case of `S=C(NCCc1cccc(Cl)c1)N1CCOC1=N[C@H]1CCc2ccccc21` [1-39], the mortality at 500 g/ha in the data set with Myzus persicae (setting [2]) and in the data set with Phaedon cochleariae was at least 80% each time. The logP in data set [1] (setting [3]) is 5.19.
Take `S=C(NCc1ccc(Cl)nc1)N1CCOC1=N[C@H]1CCc2ccccc21` [1-40]: in data set [1] (setting [3]), the logP was determined as 4.04.
In the case of `S=C(NCc1ccncc1)N1CCOC1=N[C@H]1CCc2ccccc21` [1-43], the logP in data set [1] (setting [3]) stood at 1.87.
As for `S=C(NCc1cccnc1)N1CCOC1=N[C@H]1CCc2ccccc21` [1-44], the mortality at 500 g/ha with Myzus persicae (setting [2]) is at least 80%. Also, in data set [1] (setting [3]), the logP came to 2.17.
Turning to `S=C(NCc1ccco1)N1CCOC1=N[C@H]1CCc2ccccc21` [1-45], in data set [1] (setting [3]), the logP was determined as 4.17.
For the compound `C=CCNC(=S)N1CCOC1=NC1CCc2ccccc21` (centres unmarked) [1-47], the mortality at 500 g/ha in the data set on Myzus persicae (setting [2]) was at least 80%. In data set [1] (setting [3]), the logP turned out to be 3.85.
Consider `C=CCNC(=O)N1CCOC1=NC1CCc2ccccc21` (centres unmarked) [1-48], for which the logP in data set [1] (setting [3]) came to 3.85.
Regarding `S=C(NCc1ncccn1)N1CCOC1=N[C@H]1CCc2ccccc21` [1-71], in data set [1] (setting [3]), the logP is 2.92.
Take `CC(C)=CCNC(=S)N1CCOC1=N[C@H]1CCc2ccccc21` [1-72]: the logP in data set [1] (setting [3]) turned out to be 4.78.
In data set [1] (Table I-2, key logP (acidic) is printed only in the head of Table I-1), `CC(NC(=S)N1CCSC1=NC1CCc2c(F)cccc21)c1ccccc1` (centres unmarked) [2-31, 2-[aza(4-fluorindanyl)-methylene](1,3-thiazolidine-3-yl)(alphamethylbenzylamino)methane-1-thione] yielded a Phys. data of 5.47. The logP in data set [1] (preparation example 3, text, read-out: logP (acidic)) came out at 5.47.
For `S=C(NCc1ccccc1)N1CCOC1=N[C@H]1CCCc2ccccc21` [3-2, N-benzyl-2-[(1S)-1,2,3,4-tetrahydronaphthaline-1-ylimino]-1,3-oxazolidine-3-carbothioamide], the mortality at 500 g/ha with Myzus persicae (in Brassica rapa) is at least 80%. Also, the Phys. data in data set [1] (Table I-3, logP (HCOOH), i.e. acidic conditions) is reported as 4.67. For the same compound, the “lgP (HCOOH)” value in data set [1] is given as 4.67.

The values are drawn from patent publication EP1982595A1, “Insecticidal derivatives of substituted aminoheterocycles” (Bayer CropScience AG, priority 2007, dated 2008).
